System: 624824-186-R-J2-PDC multicell spheroids, viability
Assay: Anticancer human tumor 624824-186-R-J2-PDC patient-derived colon adenocarcinoma cell line growth inhibition [PI3K]
Conditions: for IC50: curve of first compound; for viability, T/C: stronger effect = lower value
In short: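 Complex 3D spheroids (cancer cells + endothelial HUVEC + mesenchymal stem cells); drug pairs of targeted agent x inavolisib/alpelisib/duvelisib/copanlisib; half-log series from ~Cmax, max 10 microM if Cmax unknown; endpoint viability.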

[1] = second compound 0.0316 µM, first compound 0.0316 µM
[2] = second compound 0.0316 µM, first compound 0.1 µM
[3] = second compound 0.0316 µM, first compound 0.316 µM
[4] = second compound 0.0316 µM, first compound 1 µM
[5] = second compound 0.0316 µM, first compound 3.16 µM
[6] = second compound 0.0316 µM, first compound 10 µM
[7] = second compound 0.1 µM, first compound 0.0316 µM
[8] = second compound 0.1 µM, first compound 0.1 µM
[9] = second compound 0.1 µM, first compound 0.316 µM
[10] = second compound 0.1 µM, first compound 1 µM
[11] = second compound 0.1 µM, first compound 3.16 µM
[12] = second compound 0.1 µM, first compound 10 µM
[13] = second compound 0.316 µM, first compound 0.0316 µM
[14] = second compound 0.316 µM, first compound 0.1 µM
[15] = second compound 0.316 µM, first compound 0.316 µM
[16] = second compound 0.316 µM, first compound 1 µM
[17] = second compound 0.316 µM, first compound 3.16 µM
[18] = second compound 0.316 µM, first compound 10 µM
[19] = second compound 1 µM, first compound 0.0316 µM
[20] = second compound 1 µM, first compound 0.1 µM
[21] = second compound 1 µM, first compound 0.316 µM
[22] = second compound 1 µM, first compound 1 µM
[23] = second compound 1 µM, first compound 3.16 µM
[24] = second compound 1 µM, first compound 10 µM
[25] = second compound 3.16 µM, first compound 0.0316 µM
[26] = second compound 3.16 µM, first compound 0.1 µM
[27] = second compound 3.16 µM, first compound 0.316 µM
[28] = second compound 3.16 µM, first compound 1 µM
[29] = second compound 3.16 µM, first compound 3.16 µM
[30] = second compound 3.16 µM, first compound 10 µM
[31] = second compound 10 µM, first compound 0.0316 µM
[32] = second compound 10 µM, first compound 0.1 µM
[33] = second compound 10 µM, first compound 0.316 µM
[34] = second compound 10 µM, first compound 1 µM
[35] = second compound 10 µM, first compound 3.16 µM
[36] = second compound 10 µM, first compound 10 µM
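Also: spheroids exposed to agents for 7 days before viability read.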
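For viability, T/C in this document: 100% = DMSO vehicle treated spheroids.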

Compound `CC1(C)CCC(CN2CCN(c3ccc(C(=O)NS(=O)(=O)c4ccc(NCC5CCOCC5)c([N+](=O)[O-])c4)c(Oc4cnc5[nH]ccc5c4)c3)CC2)=C(c2ccc(Cl)cc2)C1` + CC(Nc1ncnc2nc[nH]c12)c1cc2cccc(Cl)c2c(=O)n1-c1ccccc1 has an IC50 (second compound 0.0316 µM) of over 10 µM, an IC50 (second compound 0.1 µM) of over 10 µM and an IC50 (second compound 0.316 µM) of over 10 µM. For the same compound, the IC50 (second compound 1 µM) was over 10 µM, the IC50 (second compound 3.16 µM) was over 10 µM and the IC50 (second compound 10 µM) was over 10 µM. For the same compound, the viability, T/C [1] was 89.4%, the viability, T/C [2] was 98.6% and the viability, T/C [3] was 77.3%. The viability, T/C [4] was 81.7%, the viability, T/C [5] was 71.6% and the viability, T/C [6] was 58.4%. The viability, T/C [7] was 103%, the viability, T/C [8] was 90.7% and the viability, T/C [9] was 91.1%. For the same compound, the viability, T/C [10] was 67.6%, the viability, T/C [11] was 67.2% and the viability, T/C [12] was 58.2%. For the same compound, the viability, T/C [13] was 88.3%, the viability, T/C [14] was 90.7% and the viability, T/C [15] was 68.4%. It also gave a viability, T/C [16] of 79.2%, a viability, T/C [17] of 63.1% and a viability, T/C [18] of 79%. It also gave a viability, T/C [19] of 86.3%, a viability, T/C [20] of 92.3% and a viability, T/C [21] of 80.2%. For the same compound, the viability, T/C [22] was 66.5%, the viability, T/C [23] was 77% and the viability, T/C [24] was 80.4%. The viability, T/C [25] was 88.5%, the viability, T/C [26] was 106% and the viability, T/C [27] was 73%. It also gave a viability, T/C [28] of 78.9%, a viability, T/C [29] of 86% and a viability, T/C [30] of 106%. It also gave a viability, T/C [31] of 103%, a viability, T/C [32] of 102% and a viability, T/C [33] of 108%. The viability, T/C [34] was 82.2%, the viability, T/C [35] was 92.2% and the viability, T/C [36] was 87%.
`C[C@@H](NC(=O)c1ncnc(N)c1Cl)c1ncc(C(=O)Nc2cc(C(F)(F)F)c(Cl)cn2)s1` + CC(Nc1ncnc2nc[nH]c12)c1cc2cccc(Cl)c2c(=O)n1-c1ccccc1 was tested, and the IC50 (second compound 0.0316 µM) was over 10 µM, the IC50 (second compound 0.1 µM) was over 10 µM and the IC50 (second compound 0.316 µM) was over 10 µM. For the same compound, the IC50 (second compound 1 µM) was over 10 µM, the IC50 (second compound 3.16 µM) was over 10 µM and the IC50 (second compound 10 µM) was over 10 µM. The viability, T/C [1] was 94%, the viability, T/C [2] was 106% and the viability, T/C [3] was 78.6%. For the same compound, the viability, T/C [4] was 69.9%, the viability, T/C [5] was 55.4% and the viability, T/C [6] was 67.2%. It also gave a viability, T/C [7] of 85.3%, a viability, T/C [8] of 82.3% and a viability, T/C [9] of 81.1%. It also gave a viability, T/C [10] of 67.7%, a viability, T/C [11] of 57% and a viability, T/C [12] of 56%. It also gave a viability, T/C [13] of 100%, a viability, T/C [14] of 99.3% and a viability, T/C [15] of 89.8%. It also gave a viability, T/C [16] of 65.4%, a viability, T/C [17] of 55.9% and a viability, T/C [18] of 58%. It also gave a viability, T/C [19] of 110%, a viability, T/C [20] of 85.6% and a viability, T/C [21] of 87.3%. The viability, T/C [22] was 63.1%, the viability, T/C [23] was 55% and the viability, T/C [24] was 54.1%. It also gave a viability, T/C [25] of 94.5%, a viability, T/C [26] of 93.9% and a viability, T/C [27] of 65.4%. For the same compound, the viability, T/C [28] was 65.6%, the viability, T/C [29] was 54.7% and the viability, T/C [30] was 59.6%. It also gave a viability, T/C [31] of 95.9%, a viability, T/C [32] of 92% and a viability, T/C [33] of 99.9%. The viability, T/C [34] was 77.2%, the viability, T/C [35] was 65.7% and the viability, T/C [36] was 57.8%.
For `Cn1ncnc1[C@H]1c2n[nH]c(=O)c3cc(F)cc(c23)N[C@@H]1c1ccc(F)cc1` + CC(Nc1ncnc2nc[nH]c12)c1cc2cccc(Cl)c2c(=O)n1-c1ccccc1, the IC50 (second compound 0.0316 µM) was over 0.1 µM, the IC50 (second compound 0.1 µM) was over 0.1 µM and the IC50 (second compound 0.316 µM) was over 0.1 µM. For the same compound, the IC50 (second compound 1 µM) was over 0.1 µM, the IC50 (second compound 3.16 µM) was over 0.1 µM and the IC50 (second compound 10 µM) was over 0.1 µM. The viability, T/C (second compound 0.0316 µM, first compound 0.000316 µM) was 82.5%, the viability, T/C (second compound 0.0316 µM, first compound 0.001 µM) was 85.3% and the viability, T/C (second compound 0.0316 µM, first compound 0.00316 µM) was 87.6%. The viability, T/C (second compound 0.0316 µM, first compound 0.01 µM) was 89%, the viability, T/C [1] was 75.7% and the viability, T/C [2] was 86%. The viability, T/C (second compound 0.1 µM, first compound 0.000316 µM) was 94.6%, the viability, T/C (second compound 0.1 µM, first compound 0.001 µM) was 85% and the viability, T/C (second compound 0.1 µM, first compound 0.00316 µM) was 89.5%. For the same compound, the viability, T/C (second compound 0.1 µM, first compound 0.01 µM) was 94.1%, the viability, T/C [7] was 82.8% and the viability, T/C [8] was 103%. The viability, T/C (second compound 0.316 µM, first compound 0.000316 µM) was 115%, the viability, T/C (second compound 0.316 µM, first compound 0.001 µM) was 102% and the viability, T/C (second compound 0.316 µM, first compound 0.00316 µM) was 96.5%. For the same compound, the viability, T/C (second compound 0.316 µM, first compound 0.01 µM) was 87.5%, the viability, T/C [13] was 110% and the viability, T/C [14] was 86.2%. The viability, T/C (second compound 1 µM, first compound 0.000316 µM) was 72.6%, the viability, T/C (second compound 1 µM, first compound 0.001 µM) was 90.8% and the viability, T/C (second compound 1 µM, first compound 0.00316 µM) was 81.7%. The viability, T/C (second compound 1 µM, first compound 0.01 µM) was 89.4%, the viability, T/C [19] was 81.4% and the viability, T/C [20] was 97.8%. For the same compound, the viability, T/C (second compound 3.16 µM, first compound 0.000316 µM) was 91.1%, the viability, T/C (second compound 3.16 µM, first compound 0.001 µM) was 94% and the viability, T/C (second compound 3.16 µM, first compound 0.00316 µM) was 94.2%. For the same compound, the viability, T/C (second compound 3.16 µM, first compound 0.01 µM) was 92.1%, the viability, T/C [25] was 83.5% and the viability, T/C [26] was 78.1%. For the same compound, the viability, T/C (second compound 10 µM, first compound 0.000316 µM) was 88.5%, the viability, T/C (second compound 10 µM, first compound 0.001 µM) was 85.6% and the viability, T/C (second compound 10 µM, first compound 0.00316 µM) was 106%. The viability, T/C (second compound 10 µM, first compound 0.01 µM) was 106%, the viability, T/C [31] was 100% and the viability, T/C [32] was 88.4%.

Source: PubChem BioAssay AID1963975 (Molecular Pharmacology Branch, DTP, NCI, 2024)
